Assay results taken from ChEMBL document CHEMBL1201862, “PubChem BioAssay data set” (2004).
The source made the active and inactive calls.

Columns and labels:
Cannabinoid receptor 1 [1] = target: T1, Cannabinoid receptor 1 (Homo sapiens, UniProt P21554); assay: SAR analysis of antagonists of the Cannabinoid Receptor 1 using an Image-Based Assay - Set 4. [Related pubchem assays (depositor defined):AID2013, AID2026]; type: functional
[2] = target: G-protein coupled receptor 55 (Homo sapiens, UniProt Q9Y2T6); assay: SAR Analysis of Selective Antagonists of GPR55 using an Image-Based Assay - Set 4. [Related pubchem assays (depositor defined):AID2013, AID2026]; type: functional;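 also: antagonism of response to 5 µM lysophosphatidylinositol agonist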
Chain of G-protein coupled receptor 55 (Q9Y2T6 whole entry): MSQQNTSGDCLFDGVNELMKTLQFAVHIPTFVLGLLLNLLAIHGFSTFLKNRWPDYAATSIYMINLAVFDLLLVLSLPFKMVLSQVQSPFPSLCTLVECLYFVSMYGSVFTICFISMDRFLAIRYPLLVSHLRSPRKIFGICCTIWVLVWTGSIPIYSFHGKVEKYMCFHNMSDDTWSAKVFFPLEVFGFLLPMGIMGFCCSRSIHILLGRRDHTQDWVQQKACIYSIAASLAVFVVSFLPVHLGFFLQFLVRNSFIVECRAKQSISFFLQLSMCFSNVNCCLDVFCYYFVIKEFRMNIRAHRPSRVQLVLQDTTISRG

Cannabinoid receptor 2 [3] = target: T2, Cannabinoid receptor 2 (Homo sapiens, UniProt P34972); assay: SAR analysis of agonists of the Cannabinoid Receptor 2 using an Image-Based Assay - Set 3. [Related pubchem assays (depositor defined):AID2013, AID2026]; type: functional
T2 sequence (P34972 whole entry): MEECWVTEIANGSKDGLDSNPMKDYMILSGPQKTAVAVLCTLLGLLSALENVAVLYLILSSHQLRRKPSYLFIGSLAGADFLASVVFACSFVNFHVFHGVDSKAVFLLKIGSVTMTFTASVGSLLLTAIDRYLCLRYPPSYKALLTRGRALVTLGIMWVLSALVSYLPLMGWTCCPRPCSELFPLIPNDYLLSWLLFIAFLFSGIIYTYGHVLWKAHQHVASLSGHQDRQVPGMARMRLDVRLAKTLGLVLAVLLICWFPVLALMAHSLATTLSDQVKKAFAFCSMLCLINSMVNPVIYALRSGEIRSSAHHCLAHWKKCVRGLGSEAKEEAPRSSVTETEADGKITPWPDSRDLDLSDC

Cannabinoid receptor 2 [4] = target: T2, Cannabinoid receptor 2; assay: SAR analysis of antagonists of the Cannabinoid Receptor 2 using an Image-Based Assay - Set 3. [Related pubchem assays (depositor defined):AID2013, AID2026]; type: functional
[5] = target: T3, G-protein coupled receptor 35 (Homo sapiens, UniProt Q9HC97); assay: SAR analysis of Agonists of the GPR35 Receptor using an Image-Based Assay - Set 4. [Related pubchem assays (depositor defined):AID2013, AID2026]; type: functional
T3 sequence (Q9HC97 whole entry): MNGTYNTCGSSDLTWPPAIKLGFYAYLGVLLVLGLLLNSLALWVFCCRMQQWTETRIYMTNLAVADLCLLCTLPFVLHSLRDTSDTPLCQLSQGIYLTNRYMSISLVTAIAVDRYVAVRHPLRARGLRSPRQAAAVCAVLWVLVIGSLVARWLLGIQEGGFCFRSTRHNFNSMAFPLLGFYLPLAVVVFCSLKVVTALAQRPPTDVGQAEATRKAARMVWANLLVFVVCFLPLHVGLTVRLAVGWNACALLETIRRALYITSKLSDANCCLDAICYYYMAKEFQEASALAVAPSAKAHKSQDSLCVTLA

Cannabinoid receptor 1 [6] = target: T1, Cannabinoid receptor 1; assay: SAR analysis of agonists of the Cannabinoid Receptor 1 using an Image-Based Assay - Set 4. [Related pubchem assays (depositor defined):AID2013, AID2026]; type: functional
[7] = target: T3, G-protein coupled receptor 35; assay: SAR analysis of Antagonists of the GPR35 Receptor using an Image-Based Assay - Set 6. [Related pubchem assays (depositor defined):AID2013, AID2026]; type: functional
Hexokinase-1 = target: T4, Hexokinase-1 (Homo sapiens, UniProt P19367); assay: HK1 enzyme activation by HKDC1 hits – biochemical, selectivity assay for HKDC1 activator project, dose response (AID 504762); type: functional
T4 sequence (P19367 whole entry): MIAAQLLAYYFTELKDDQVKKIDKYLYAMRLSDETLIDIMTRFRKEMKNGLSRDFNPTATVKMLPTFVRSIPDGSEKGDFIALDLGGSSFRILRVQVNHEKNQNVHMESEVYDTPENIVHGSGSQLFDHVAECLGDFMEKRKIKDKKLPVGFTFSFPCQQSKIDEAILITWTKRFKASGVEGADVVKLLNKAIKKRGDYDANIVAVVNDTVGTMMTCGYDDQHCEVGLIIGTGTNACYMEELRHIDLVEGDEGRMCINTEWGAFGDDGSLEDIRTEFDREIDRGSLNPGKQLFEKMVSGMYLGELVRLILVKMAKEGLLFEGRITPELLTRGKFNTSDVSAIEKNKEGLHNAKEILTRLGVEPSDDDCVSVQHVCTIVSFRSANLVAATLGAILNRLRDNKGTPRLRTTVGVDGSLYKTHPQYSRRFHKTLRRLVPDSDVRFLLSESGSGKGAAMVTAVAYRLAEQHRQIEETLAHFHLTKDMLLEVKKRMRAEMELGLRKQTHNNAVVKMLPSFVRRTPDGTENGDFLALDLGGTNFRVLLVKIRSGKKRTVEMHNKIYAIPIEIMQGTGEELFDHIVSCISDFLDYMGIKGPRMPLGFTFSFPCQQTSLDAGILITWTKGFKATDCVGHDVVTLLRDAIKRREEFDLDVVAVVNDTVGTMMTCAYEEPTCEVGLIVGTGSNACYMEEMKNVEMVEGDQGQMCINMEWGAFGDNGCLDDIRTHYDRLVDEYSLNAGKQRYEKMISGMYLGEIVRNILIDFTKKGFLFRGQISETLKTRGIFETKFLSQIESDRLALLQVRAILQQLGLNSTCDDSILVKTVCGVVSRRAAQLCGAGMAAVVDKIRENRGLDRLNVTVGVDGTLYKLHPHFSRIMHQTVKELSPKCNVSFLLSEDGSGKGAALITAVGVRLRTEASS

Hexokinase HKDC1 = target: T5, Hexokinase HKDC1 (Homo sapiens, UniProt Q2TB90); assay: activation of HKDC1 glucose phosphorylation – biochemical, W721R variant, dose response (AID 504730); type: functional
T5 sequence (Q2TB90 whole entry): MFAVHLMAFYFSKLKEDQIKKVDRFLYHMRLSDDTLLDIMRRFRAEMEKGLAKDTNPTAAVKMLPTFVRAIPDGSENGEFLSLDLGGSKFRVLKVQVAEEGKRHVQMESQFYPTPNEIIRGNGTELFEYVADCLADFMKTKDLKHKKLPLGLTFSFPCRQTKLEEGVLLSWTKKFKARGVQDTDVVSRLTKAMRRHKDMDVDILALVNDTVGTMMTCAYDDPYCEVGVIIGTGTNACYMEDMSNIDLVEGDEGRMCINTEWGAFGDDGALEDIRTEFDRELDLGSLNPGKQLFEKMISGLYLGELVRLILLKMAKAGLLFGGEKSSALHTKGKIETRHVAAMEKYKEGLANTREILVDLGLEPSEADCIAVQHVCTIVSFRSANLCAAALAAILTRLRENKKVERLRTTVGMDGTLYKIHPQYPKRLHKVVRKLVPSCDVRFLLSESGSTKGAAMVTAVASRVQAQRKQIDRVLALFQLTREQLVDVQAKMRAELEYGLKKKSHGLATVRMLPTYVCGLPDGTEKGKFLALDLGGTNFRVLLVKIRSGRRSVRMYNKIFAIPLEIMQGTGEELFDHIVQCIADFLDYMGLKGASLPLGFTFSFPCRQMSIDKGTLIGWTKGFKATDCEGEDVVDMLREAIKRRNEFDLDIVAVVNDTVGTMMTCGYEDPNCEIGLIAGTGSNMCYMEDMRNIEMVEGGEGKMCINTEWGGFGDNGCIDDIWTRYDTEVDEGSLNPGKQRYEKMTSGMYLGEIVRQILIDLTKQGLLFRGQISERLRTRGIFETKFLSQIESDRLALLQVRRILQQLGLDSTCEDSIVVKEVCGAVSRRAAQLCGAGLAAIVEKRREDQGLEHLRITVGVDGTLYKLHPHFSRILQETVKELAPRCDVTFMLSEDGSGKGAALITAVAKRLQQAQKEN

[8] = target: E3 ubiquitin-protein ligase XIAP (Homo sapiens, UniProt P98170); assay: Counter Screen using XIAP-Bir3 for Chemical Antagonists of Bir1/2 domains of IAP-family anti-apoptotic proteins. [Related pubchem assays (depositor defined):AID1018, AID1449, AID1514, AID1638, AID1749, AID1750, AID488957, AID488963]
[9] = target: T6, Voltage-gated N-type calcium channel alpha-1B subunit/Amyloid beta A4 precursor protein-binding family A member 1 (Homo sapiens, UniProt Q00975+Q02410); type: protein assay
T6 sequence (Q00975 whole entry): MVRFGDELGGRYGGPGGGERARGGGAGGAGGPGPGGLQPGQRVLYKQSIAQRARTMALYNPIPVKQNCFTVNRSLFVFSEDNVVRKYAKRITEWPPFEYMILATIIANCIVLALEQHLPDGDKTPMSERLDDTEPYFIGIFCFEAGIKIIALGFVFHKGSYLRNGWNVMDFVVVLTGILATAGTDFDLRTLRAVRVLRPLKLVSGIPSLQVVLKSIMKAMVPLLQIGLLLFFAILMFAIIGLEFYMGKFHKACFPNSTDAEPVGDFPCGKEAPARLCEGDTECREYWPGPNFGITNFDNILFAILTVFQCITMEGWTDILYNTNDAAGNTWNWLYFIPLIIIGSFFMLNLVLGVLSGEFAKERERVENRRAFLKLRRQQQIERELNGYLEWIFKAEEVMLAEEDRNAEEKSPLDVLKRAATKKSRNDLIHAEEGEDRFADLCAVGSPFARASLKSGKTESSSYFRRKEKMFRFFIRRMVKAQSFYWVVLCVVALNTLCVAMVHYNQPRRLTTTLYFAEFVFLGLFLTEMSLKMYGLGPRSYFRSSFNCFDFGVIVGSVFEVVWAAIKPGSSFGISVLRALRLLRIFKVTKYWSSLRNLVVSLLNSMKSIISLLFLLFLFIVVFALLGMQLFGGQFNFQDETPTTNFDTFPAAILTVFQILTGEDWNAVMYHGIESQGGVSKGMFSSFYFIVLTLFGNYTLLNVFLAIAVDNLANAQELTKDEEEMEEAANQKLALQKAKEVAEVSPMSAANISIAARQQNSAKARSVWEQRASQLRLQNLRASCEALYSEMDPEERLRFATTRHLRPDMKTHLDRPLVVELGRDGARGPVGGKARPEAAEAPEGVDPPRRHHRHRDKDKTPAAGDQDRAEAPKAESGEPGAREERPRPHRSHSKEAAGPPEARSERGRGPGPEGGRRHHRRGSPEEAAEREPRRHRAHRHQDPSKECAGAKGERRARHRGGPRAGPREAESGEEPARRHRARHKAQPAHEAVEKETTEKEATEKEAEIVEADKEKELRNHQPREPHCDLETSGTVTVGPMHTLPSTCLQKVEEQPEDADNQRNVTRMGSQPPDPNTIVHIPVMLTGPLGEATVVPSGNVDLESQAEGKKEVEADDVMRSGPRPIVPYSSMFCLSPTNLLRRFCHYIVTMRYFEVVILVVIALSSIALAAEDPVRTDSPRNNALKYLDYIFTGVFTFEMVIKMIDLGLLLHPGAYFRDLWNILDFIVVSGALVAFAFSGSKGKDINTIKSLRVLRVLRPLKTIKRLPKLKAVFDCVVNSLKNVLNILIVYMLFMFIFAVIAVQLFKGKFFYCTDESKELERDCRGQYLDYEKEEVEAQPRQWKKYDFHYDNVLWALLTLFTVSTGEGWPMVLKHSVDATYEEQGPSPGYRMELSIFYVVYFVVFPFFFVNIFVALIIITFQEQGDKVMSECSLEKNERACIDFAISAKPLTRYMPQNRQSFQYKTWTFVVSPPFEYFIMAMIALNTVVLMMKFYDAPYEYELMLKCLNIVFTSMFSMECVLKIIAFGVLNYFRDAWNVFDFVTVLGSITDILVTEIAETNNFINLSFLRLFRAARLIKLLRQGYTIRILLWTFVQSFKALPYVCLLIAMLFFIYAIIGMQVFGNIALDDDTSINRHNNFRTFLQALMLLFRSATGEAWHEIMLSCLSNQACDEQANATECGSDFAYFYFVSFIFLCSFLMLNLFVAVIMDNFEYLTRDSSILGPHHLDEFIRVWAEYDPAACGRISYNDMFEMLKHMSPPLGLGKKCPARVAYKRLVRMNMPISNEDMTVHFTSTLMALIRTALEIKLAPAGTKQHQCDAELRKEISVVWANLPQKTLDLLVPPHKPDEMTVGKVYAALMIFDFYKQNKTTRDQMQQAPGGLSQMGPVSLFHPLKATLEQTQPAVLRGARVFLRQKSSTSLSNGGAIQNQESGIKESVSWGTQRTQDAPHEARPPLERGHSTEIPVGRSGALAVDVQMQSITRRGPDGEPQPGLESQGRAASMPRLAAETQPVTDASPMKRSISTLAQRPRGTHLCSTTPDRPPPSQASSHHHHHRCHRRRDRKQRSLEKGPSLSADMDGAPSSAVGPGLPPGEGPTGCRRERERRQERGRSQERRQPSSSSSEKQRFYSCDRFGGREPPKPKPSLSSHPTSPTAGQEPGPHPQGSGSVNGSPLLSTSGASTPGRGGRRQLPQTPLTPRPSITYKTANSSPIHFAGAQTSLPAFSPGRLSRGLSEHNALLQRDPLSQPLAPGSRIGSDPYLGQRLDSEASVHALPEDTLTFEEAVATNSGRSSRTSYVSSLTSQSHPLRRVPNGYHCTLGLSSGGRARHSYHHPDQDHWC
T6 sequence (Q02410 whole entry): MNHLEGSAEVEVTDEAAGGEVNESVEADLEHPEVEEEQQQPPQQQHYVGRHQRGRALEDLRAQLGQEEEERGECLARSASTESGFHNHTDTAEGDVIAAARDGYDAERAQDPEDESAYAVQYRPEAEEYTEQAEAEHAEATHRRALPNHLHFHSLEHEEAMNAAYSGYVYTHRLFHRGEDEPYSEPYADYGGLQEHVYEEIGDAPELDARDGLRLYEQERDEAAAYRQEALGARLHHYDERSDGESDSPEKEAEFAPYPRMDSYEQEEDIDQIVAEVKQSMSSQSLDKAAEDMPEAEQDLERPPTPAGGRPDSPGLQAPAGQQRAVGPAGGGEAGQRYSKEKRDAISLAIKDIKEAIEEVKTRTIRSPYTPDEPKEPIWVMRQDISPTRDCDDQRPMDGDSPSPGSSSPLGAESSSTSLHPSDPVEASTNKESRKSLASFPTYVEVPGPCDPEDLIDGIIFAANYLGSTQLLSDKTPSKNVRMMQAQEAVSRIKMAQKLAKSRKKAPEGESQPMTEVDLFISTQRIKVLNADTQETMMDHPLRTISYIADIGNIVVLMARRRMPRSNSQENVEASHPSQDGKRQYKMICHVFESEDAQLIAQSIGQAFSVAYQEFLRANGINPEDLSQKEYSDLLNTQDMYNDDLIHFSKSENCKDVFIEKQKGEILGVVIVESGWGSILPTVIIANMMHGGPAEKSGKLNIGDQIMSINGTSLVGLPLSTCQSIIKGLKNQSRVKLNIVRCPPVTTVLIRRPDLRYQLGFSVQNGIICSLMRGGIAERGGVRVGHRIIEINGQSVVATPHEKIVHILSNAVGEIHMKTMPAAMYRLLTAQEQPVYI

[10] = target: T6, Voltage-gated N-type calcium channel alpha-1B subunit/Amyloid beta A4 precursor protein-binding family A member 1; type: protein assay; remark: listed apart in the source

T1 sequence (P21554 whole entry): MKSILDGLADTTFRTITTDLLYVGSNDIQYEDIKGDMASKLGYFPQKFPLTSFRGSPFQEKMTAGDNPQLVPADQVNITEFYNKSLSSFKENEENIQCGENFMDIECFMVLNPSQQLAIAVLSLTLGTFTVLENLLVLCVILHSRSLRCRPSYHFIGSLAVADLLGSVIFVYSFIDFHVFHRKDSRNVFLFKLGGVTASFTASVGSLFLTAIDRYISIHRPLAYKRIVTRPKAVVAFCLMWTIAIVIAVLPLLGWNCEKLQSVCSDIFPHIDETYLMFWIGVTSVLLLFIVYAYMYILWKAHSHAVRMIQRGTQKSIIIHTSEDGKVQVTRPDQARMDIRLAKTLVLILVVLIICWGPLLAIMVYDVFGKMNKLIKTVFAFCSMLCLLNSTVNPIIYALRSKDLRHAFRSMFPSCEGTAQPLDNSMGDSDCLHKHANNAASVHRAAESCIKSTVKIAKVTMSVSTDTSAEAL

| SMILES | IC50 (Cannabinoid receptor 1 [1]) | IC50 [2] | EC50 (Cannabinoid receptor 2 [3]) | IC50 (Cannabinoid receptor 2 [4]) | EC50 [5] | EC50 (Cannabinoid receptor 1 [6]) | IC50 [7] | EC50 (Hexokinase-1) | EC50 (Hexokinase HKDC1) | IC50 [8] | IC50 [9] | IC50 [10] |
| --- | --- | --- | --- | --- | --- | --- | --- | --- | --- | --- | --- | --- |
| Cc1noc(NS(=O)(=O)c2ccc(NC(=O)c3cc(-c4ccccc4Cl)nc4ccccc34)cc2)c1C | 18.8 µM (inactive) | 4.63 µM (active) | > 32 µM (inactive) | > 32 µM (inactive) | > 32 µM (inactive) | > 32 µM (inactive) | > 32 µM (inactive) | – | – | – | – | – |
| Cc1ccc2oc(=O)c3cnn(CC(=O)N4CCCCCC4)c3c2c1 | – | – | – | – | – | – | – | 21.7 µM (inactive) | 34.1 µM (inactive) | – | – | – |
| O=C(Nc1ccc(S(=O)(=O)N2CCOCC2)cc1)c1ccc(O)nc1 | – | – | – | – | – | – | – | – | – | > 20 µM (inactive) | 7.16 µM (active) | > 50 µM (inactive) |
| Cc1nc(N2CCN(C(=O)COc3ccccc3C)CC2)c2c3c(sc2n1)CCCC3 | 2.22 µM (active) | 13.1 µM (inactive) | > 32 µM (inactive) | > 13.1 µM (inactive) | > 32 µM (inactive) | > 32 µM (inactive) | > 32 µM (inactive) | – | – | – | – | – |
